Experimental data taken from patent US20210386068A1, “COMPOSITIONS COMPRISING PYRIDINE CARBOXYLATE HERBICIDES AND VERY LONG CHAIN FATTY ACID (VLCFA) SYNTHESIS INHIBITOR HERBICIDES” (priority 2018, published 2021).

Key:
[1] = test system: Capsella bursa-pastoris (shepherd's purse, CAPBP); assay: Greenhouse postemergence herbicidal effect, visual injury 20-22 d after spraying, shepherd's purse (CAPBP); type: in vivo; details: Anilofos or Pretilachlor 300 g/ha
Source text: (§1) Seeds of the desired test plant species were planted in a 90:10% v/v (volume/volume) mixture of PRO-MIX® BX (Premier Tech Horticulture, Quakertown, Pa., USA) and PROFILE® GREENS GRADE™ (Profile Products LLC, Buffalo Grove, Ill., USA) planting mixture, which typically has a pH of 5.2 to 6.2 and an organic matter content of at least 50 percent, in plastic pots with a surface area of 103.2 square centimeters (cm^2). In some aspects, to ensure good germination and healthy plants, a fungicide treatment and/or other chemical or physical treatment was applied. The plants were grown for 7-36 days (d) in a greenhouse with an approximate 14-hour (h) photoperiod which was maintained at about 23° C. during the day and 22° C. during the night. Nutrients and water were added on a regular basis and supplemental lighting was provided with overhead metal halide 1000-Watt lamps as necessary. The plants were employed for testing when they reached the second or third true leaf stage.
(§2) Emulsifiable concentrates of each of each pyridine carboxylate herbicide (Compound A or Compound B) were prepared at 100 grams acid equivalent per liter (g ae/L). The emulsifiable concentrates also included a safener, cloquintocet-mexyl, at 120 grams active ingredient per liter (g ai/L). An aliquot of each emulsifiable concentrate was placed in a 25 mL glass vial and diluted with an aqueous mixture of 1.25% (v/v) ACTIROB® B esterified rapeseed oil (Bayer Crop Science, Research Triangle Park, N.C., USA) or MSO® Concentrate with LECI-TECH® methylated soybean oil (Loveland Products, Loveland, Colo., USA) to obtain concentrated stock solutions at the highest application rate for each herbicide, based upon a 12 milliliter (mL) application volume at a rate of 187 liters per hectare (L/ha). The concentrated stock solutions were further diluted with an aqueous mixture of 1.25% v/v ACTIROB® B or MSO® Concentrate with LECI-TECH® to obtain stock solutions at reduced application rates for each herbicide. Spray solutions of the herbicide combinations (Compound A or Compound B plus VLCFA synthesis inhibitor herbicide) were prepared by adding weighed amounts or aliquots of the VLCFA synthesis inhibitor herbicide to the stock solutions of Compound A or Compound B to form 12-mL spray solutions in two-way combinations.
(§3) The spray solutions were applied to the plant material with an overhead Mandel track sprayer equipped with 8002E nozzles calibrated to deliver 187 L/ha over an application area of 0.503 square meters (m^2) at a spray height of 18 inches ([…] (cm)) above the average plant canopy. Control plants were sprayed in the same manner with the solvent blank. All pyridine carboxylate herbicide (component a) application rates are given as “g ae/ha” and all VLCFA synthesis inhibitor herbicide (component b) application rates are given as “g ai/ha.”
(§4) The treated plants and control plants were placed in a greenhouse as described above and watered by sub-irrigation to prevent wash-off of the test compounds. After 20-22 d, the condition of the test plants as compared with that of the control plants was determined visually and scored on a scale of 0 to 100 percent where 0 corresponds to no injury and 100 corresponds to complete kill.

[2] = test system: Viola tricolor (wild pansy, VIOTR); assay: Greenhouse postemergence herbicidal effect, visual injury 20-22 d after spraying, wild pansy (VIOTR); type: in vivo; details: for % visual injury VIOTR Obs: Anilofos or Pretilachlor 300 g/ha
Source text: as §1, §2, §3, §4

[3] = test system: Stellaria media (common chickweed, STEME); assay: Greenhouse postemergence herbicidal effect, visual injury 20-22 d after spraying, common chickweed (STEME); type: in vivo; details: Anilofos or Pretilachlor 300 g/ha
Source text: as §1, §2, §3, §4

[4] = test system: Anthemis arvensis (corn chamomile, ANTAR); assay: Greenhouse postemergence herbicidal effect, visual injury 20-22 d after spraying, corn chamomile (ANTAR); type: in vivo; details: Anilofos or Pretilachlor 300 g/ha
Source text: as §1, §2, §3, §4

[5] = test system: Brassica napus (winter rape, BRSNW); assay: Greenhouse postemergence herbicidal effect, visual injury 20-22 d after spraying, winter rape (BRSNW); type: in vivo; details: Anilofos or Pretilachlor 300 g/ha
Source text: as §1, §2, §3, §4

[6] = test system: Sinapis arvensis (wild mustard, SINAR); assay: Greenhouse postemergence herbicidal effect, visual injury 20-22 d after spraying, wild mustard (SINAR); type: in vivo; details: Anilofos or Pretilachlor 300 g/ha
Source text: as §1, §2, §3, §4

[7] = test system: Cirsium arvense (Canadian thistle, CIRAR); assay: Greenhouse postemergence herbicidal effect, visual injury 20-22 d after spraying, Canadian thistle (CIRAR); type: in vivo; details: for % visual injury CIRAR Obs: Anilofos or Pretilachlor 300 g/ha
Source text: as §1, §2, §3, §4

[8] = test system: Veronica persica (Persian speedwell, VERPE); assay: Greenhouse postemergence herbicidal effect, visual injury 20-22 d after spraying, Persian speedwell (VERPE); type: in vivo; details: Anilofos or Pretilachlor 300 g/ha
Source text: as §1, §2, §3, §4

[9] = test system: Veronica hederifolia (ivy-leaved speedwell, VERHE); assay: Greenhouse postemergence herbicidal effect, visual injury 20-22 d after spraying, ivy-leaved speedwell (VERHE); type: in vivo; details: Anilofos or Pretilachlor 300 g/ha
Source text: as §1, §2, §3, §4

winter wheat (TRZAW) = assay: Greenhouse postemergence crop phytotoxicity, visual injury 20-22 d after spraying, winter wheat (TRZAW); type: in vivo, Triticum aestivum; details: Anilofos or Pretilachlor 300 g/ha
Source text: as §1, §2, §3, §4

[10] = test system: Papaver rhoeas (common poppy, PAPRH); assay: Greenhouse postemergence herbicidal effect, visual injury 20-22 d after spraying, common poppy (PAPRH); type: in vivo; details: Anilofos or Pretilachlor 300 g/ha
Source text: as §1, §2, §3, §4

[11] = test system: Polygonum convolvulus (wild buckwheat, POLCO); assay: Greenhouse postemergence herbicidal effect, visual injury 20-22 d after spraying, wild buckwheat (POLCO); type: in vivo; details: Anilofos or Pretilachlor 300 g/ha
Source text: as §1, §2, §3, §4

[12] = test system: Kochia scoparia (kochia, KCHSC); assay: Greenhouse postemergence herbicidal effect, visual injury 20-22 d after spraying, kochia (KCHSC); type: in vivo; details: Anilofos or Pretilachlor 300 g/ha
Source text: as §1, §2, §3, §4

[13] = test system: Viola arvensis (field pansy, VIOAR); assay: Greenhouse postemergence herbicidal effect, visual injury 20-22 d after spraying, field pansy (VIOAR); type: in vivo; details: Anilofos or Pretilachlor 300 g/ha
Source text: as §1, §2, §3, §4

[14] = test system: Matricaria chamomilla (wild chamomile, MATCH); assay: Greenhouse postemergence herbicidal effect, visual injury 20-22 d after spraying, wild chamomile (MATCH); type: in vivo; details: Anilofos or Pretilachlor 300 g/ha
Source text: as §1, §2, §3, §4

winter barley (HORVW) = assay: Greenhouse postemergence crop phytotoxicity, visual injury 20-22 d after spraying, winter barley (HORVW); type: in vivo, Hordeum vulgare; details: Anilofos or Pretilachlor 300 g/ha
Source text: as §1, §2, §3, §4

[15] = test system: Hordeum vulgare (spring barley, HORVS); assay: Greenhouse postemergence crop phytotoxicity, visual injury 20-22 d after spraying, spring barley (HORVS); type: in vivo; details: Anilofos or Pretilachlor 300 g/ha
Source text: as §1, §2, §3, §4

[16] = test system: Matricaria inodora (scentless chamomile, MATIN); assay: Greenhouse postemergence herbicidal effect, visual injury 20-22 d after spraying, scentless chamomile (MATIN); type: in vivo; details: Anilofos or Pretilachlor 300 g/ha
Source text: as §1, §2, §3, §4

[17] = test system: Cyanus segetum (cornflower, CENCY); assay: Greenhouse postemergence herbicidal effect, visual injury 20-22 d after spraying, cornflower (CENCY); type: in vivo; details: Anilofos or Pretilachlor 300 g/ha
Source text: as §1, §2, §3, §4

[18] = test system: Lamium purpureum (purple deadnettle, LAMPU); assay: Greenhouse postemergence herbicidal effect, visual injury 20-22 d after spraying, purple deadnettle (LAMPU); type: in vivo; details: Anilofos or Pretilachlor 300 g/ha
Source text: as §1, §2, §3, §4

[19] = test system: Matricaria discoidea (pineapple weed, MATMT); assay: Greenhouse postemergence herbicidal effect, visual injury 20-22 d after spraying, pineapple weed (MATMT); type: in vivo; details: Anilofos or Pretilachlor 300 g/ha
Source text: as §1, §2, §3, §4

[20] = test system: Salsola kali (Russian thistle, SASKR); assay: Greenhouse postemergence herbicidal effect, visual injury 20-22 d after spraying, Russian thistle (SASKR); type: in vivo; details: Anilofos or Pretilachlor 300 g/ha
Source text: as §1, §2, §3, §4

[21] = test system: Triticum aestivum (spring wheat, TRZAS); assay: Greenhouse postemergence crop phytotoxicity, visual injury 20-22 d after spraying, spring wheat (TRZAS); type: in vivo; details: Anilofos or Pretilachlor 300 g/ha
Source text: as §1, §2, §3, §4

[22] = test system: Ipomoea hederacea (ivyleaf morningglory, IPOHE); assay: Greenhouse postemergence herbicidal effect, visual injury 20-22 d after spraying, ivyleaf morningglory (IPOHE); type: in vivo; details: Flufenacet 60 g/ha alone
Source text: as §1
(§5) Emulsifiable concentrates of each of each pyridine carboxylate herbicide (Compound A or Compound B) were prepared at 100 grams acid equivalent per liter (g ae/L). The emulsifiable concentrates also included a safener, cloquintocet-mexyl, at 120 grams active ingredient per liter (g ai/L). […]
as §4

[23] = test system: Abutilon theophrasti (velvetleaf, ABUTH); assay: Greenhouse postemergence herbicidal effect, visual injury 20-22 d after spraying, velvetleaf (ABUTH); type: in vivo; details: Flufenacet 60 g/ha alone
Source text: as §1, §5, §4

[24] = test system: Amaranthus retroflexus (pigweed, AMARE); assay: Greenhouse postemergence herbicidal effect, visual injury 20-22 d after spraying, pigweed (AMARE); type: in vivo; details: Flufenacet 60 g/ha alone
Source text: as §1, §2, §3, §4

[25] = test system: Helianthus annuus (common sunflower, HELAN); assay: Greenhouse postemergence herbicidal effect, visual injury 20-22 d after spraying, common sunflower (HELAN); type: in vivo; details: Flufenacet 60 g/ha alone
Source text: as §1, §5, §4

COP(=S)(OC)SCC(=O)N(c1ccc(Cl)cc1)C(C)C [Anilofos, S-[2-[(4-chlorophenyl)(1-methylethyl)amino]-2-oxoethyl] O,O-dimethyl phosphorodithioate]
10%: % visual injury CENCY Obs [17] | % visual injury LAMPU Obs [18]
0%: % visual injury CAPBP Obs [1] | % visual injury VIOTR Obs [2] | % visual injury STEME Obs [3] | % visual injury SINAR Obs [6] | % visual injury CIRAR Obs [7] | % visual injury VERHE Obs [9] | % visual injury TRZAW Obs (winter wheat (TRZAW)) | % visual injury POLCO Obs [11] | % visual injury KCHSC Obs [12] | % visual injury VIOAR Obs [13] | % visual injury MATCH Obs [14] | % visual injury HORVW Obs (winter barley (HORVW)) | % visual injury HORVS Obs [15] | % visual injury MATIN Obs [16] | % visual injury MATMT Obs [19] | % visual injury SASKR Obs [20] | % visual injury TRZAS Obs [21]
25%: % visual injury PAPRH Obs [10]
5%: % visual injury ANTAR Obs [4] | % visual injury BRSNW Obs [5] | % visual injury VERPE Obs [8]

CCCOCCN(C(=O)CCl)c1c(CC)cccc1CC [Pretilachlor, 2-chloro-N-(2,6-diethylphenyl)-N-(2-propoxyethyl)acetamide]
25%: % visual injury SASKR Obs [20]
0%: % visual injury CAPBP Obs [1] | % visual injury STEME Obs [3] | % visual injury TRZAW Obs (winter wheat (TRZAW)) | % visual injury HORVW Obs (winter barley (HORVW)) | % visual injury HORVS Obs [15] | % visual injury MATIN Obs [16] | % visual injury TRZAS Obs [21]
8%: % visual injury POLCO Obs [11]
13%: % visual injury MATMT Obs [19]
20%: % visual injury MATCH Obs [14]
10%: % visual injury ANTAR Obs [4] | % visual injury VERVE Obs [8] | % visual injury PAPRH Obs [10] | % visual injury CENCY Obs [17]
5%: % visual injury VIOTR Obs [2] | % visual injury BRSNW Obs [5] | % visual injury SINAR Obs [6] | % visual injury CIRAR Obs [7] | % visual injury VERHE Obs [9] | % visual injury KCHSC Obs [12] | % visual injury VIOAR Obs [13] | % visual injury LAMPU Obs [18]

CC(C)N(C(=O)COc1nnc(C(F)(F)F)s1)c1ccc(F)cc1 [Flufenacet, N-(4-fluorophenyl)-N-(1-methylethyl)-2-[[5-(trifluoromethyl)-1,3,4-thiadiazol-2-yl]oxy]acetamide]
5%: % visual injury Obs [22] | % visual injury Obs [24]
8%: % visual injury Obs ([7]; CIRAR, Flufenacet 60 g/ha alone)
15%: % visual injury Obs [25]
3%: % visual injury Obs [23]
0%: % visual injury Obs ([2]; VIOTR, Flufenacet 60 g/ha alone)
